Test results reported in publication PMC6581923 (Journal of Molecular Neuroscience, 2018).

Tests used:
PAC1-R = molecular target: T1, PAC1-R (Homo sapiens, UniProt P41586); assay: cAMP accumulation assay in PAC1-CHO cells; format: cell-based; settings: DMEM, 37 °C, 5-10 min, enzyme immunoassay for cAMP, % of maximal cAMP level with PACAP27, means ± SEM of four experiments, read-out: EC50 (activation of PAC1-R, cAMP accumulation)
T1 construct: expressed in transfected cells; host or cells: PAC1-CHO cells (CHO cells expressing PAC1-R); That they are transfected is inferred from the cell line's name
T1 sequence (P41586 21-468): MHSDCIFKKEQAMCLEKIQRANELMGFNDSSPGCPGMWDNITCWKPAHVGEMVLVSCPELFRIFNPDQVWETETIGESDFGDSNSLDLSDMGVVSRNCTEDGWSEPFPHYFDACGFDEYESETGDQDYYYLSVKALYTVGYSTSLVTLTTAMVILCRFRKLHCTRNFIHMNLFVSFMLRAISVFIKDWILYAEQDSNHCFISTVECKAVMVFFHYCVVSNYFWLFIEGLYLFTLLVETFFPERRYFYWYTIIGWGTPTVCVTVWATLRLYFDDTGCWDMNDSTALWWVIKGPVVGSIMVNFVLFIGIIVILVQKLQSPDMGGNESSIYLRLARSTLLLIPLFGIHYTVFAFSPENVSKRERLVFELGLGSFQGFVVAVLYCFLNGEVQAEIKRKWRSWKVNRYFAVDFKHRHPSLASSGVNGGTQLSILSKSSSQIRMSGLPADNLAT
Method: PAC1-CHO cells cultured in Dulbecco’s Modified Eagle’s Medium (DMEM) at 37 °C were scraped off the surface with rubber policeman, washed twice with PBS and the density of the cells was adjusted to 2 × 10^6 /mL. Peptides were added to 500 uL cells suspension with the corresponding varying working concentrations of the detected factor. After incubation at 37 °C for 5-10 min cells were harvested and the lysates were subjected to cAMP quantification using the enzyme immunoassay kit for cAMP (Biyuntian, Shanghai, China), following the manufacturer’s instructions. Protein concentration of each sample was determined using BCA assay, and the cAMP level of each sample was calculated following the formula: cAMP level (pmol/mg protein) = cAMP concentration (pmol/mL)/protein concentration (mg/mL). The cAMP level in each sample was plotted as the percentage (%) of the maximal cAMP level in cells treated with PACAP27 versus the logarithmic value of the peptide concentrations. All experiments were run with at least four parallel samples and were repeated three times.
The data are means ± SEM of four experiments

[1] = ref Steingart et al. [2000]; cited from earlier work
Source text: VIP is an important neuromodulator along the visual transmission pathways, not only in the retina, but all the way to the cortex where it influences visual information processing (Galletti and Fattori [2018]; Wilson and Glickfeld [2014]). Regarding retinoprotection, a few studies i ...

Row | Molecule | EC50 (PAC1-R) | Protection against a variety of stress factors [1]
1 | CC[C@H](C)[C@H](NC(=O)[C@H](CO)NC(=O)[C@H](CC(N)=O)NC(=O)[C@H](CC(C)C)NC(=O)[C@H](Cc1ccc(O)cc1)NC(=O)[C@H](CCCCN)NC(=O)[C@H](CCCCN)NC(=O)[C@@H](NC(=O)[C@H](C)NC(=O)[C@H](CCSC)NC(=O)[C@H](CCC(N)=O)NC(=O)[C@H](CCCCN)NC(=O)[C@H](CCCN=C(N)N)NC(=O)[C@H](CC(C)C)NC(=O)[C@H](CCCN=C(N)N)NC(=O)[C@@H](NC(=O)[C@H](Cc1ccc(O)cc1)NC(=O)[C@H](CC(N)=O)NC(=O)[C@H](CC(=O)O)NC(=O)[C@@H](NC(=O)[C@H](Cc1ccccc1)NC(=O)[C@@H](NC(=O)[C@H](C)NC(=O)[C@H](CC(=O)O)NC(=O)[C@H](CO)NC(=O)[C@@H](N)Cc1c[nH]cn1)C(C)C)[C@@H](C)O)[C@@H](C)O)C(C)C)C(=O)N[C@@H](CC(C)C)C(=O)N[C@@H](CC(N)=O)C(N)=O [VIP, vasoactive intestinal peptide, reference compound] | 0.0301 ± 0.0041 µM | –
2 | activity-dependent neurotrophic protein (protein, UniProt Q9H2P0 1-1102, looked up) Activity-dependent …: MFQLPVNNLGSLRKARKTVKKILSDIGLEYCKEHIEDFKQFEPNDFYLKNTTWEDVGLWDPSLTKNQDYRTKPFCCSACPFSSKFFSAYKSHFRNVHSEDFENRILLNCPYCTFNADKKTLETHIKIFHAPNASAPSSSLSTFKDKNKNDGLKPKQADSVEQAVYYCKKCTYRDPLYEIVRKHIYREHFQHVAAPYIAKAGEKSLNGAVPLGSNAREESSIHCKRCLFMPKSYEALVQHVIEDHERIGYQVTAMIGHTNVVVPRSKPLMLIAPKPQDKKSMGLPPRIGSLASGNVRSLPSQQMVNRLSIPKPNLNSTGVNMMSSVHLQQNNYGVKSVGQGYSVGQSMRLGLGGNAPVSIPQQSQSVKQLLPSGNGRSYGLGSEQRSQAPARYSLQSANASSLSSGQLKSPSLSQSQASRVLGQSSSKPAAAATGPPPGNTSSTQKWKICTICNELFPENVYSVHFEKEHKAEKVPAVANYIMKIHNFTSKCLYCNRYLPTDTLLNHMLIHGLSCPYCRSTFNDVEKMAAHMRMVHIDEEMGPKTDSTLSFDLTLQQGSHTNIHLLVTTYNLRDAPAESVAYHAQNNPPVPPKPQPKVQEKADIPVKSSPQAAVPYKKDVGKTLCPLCFSILKGPISDALAHHLRERHQVIQTVHPVEKKLTYKCIHCLGVYTSNMTASTITLHLVHCRGVGKTQNGQDKTNAPSRLNQSPSLAPVKRTYEQMEFPLLKKRKLDDDSDSPSFFEEKPEEPVVLALDPKGHEDDSYEARKSFLTKYFNKQPYPTRREIEKLAASLWLWKSDIASHFSNKRKKCVRDCEKYKPGVLLGFNMKELNKVKHEMDFDAEWLFENHDEKDSRVNASKTADKKLNLGKEDDSSSDSFENLEEESNESGSPFDPVFEVEPKISNDNPEEHVLKVIPEDASESEEKLDQKEDGSKYETIHLTEEPTKLMHNASDSEVDQDDVVEWKDGASPSESGPGSQQVSDFEDNTCEMKPGTWSDESSQSEDARSSKPAAKKKATMQGDREQLKWKNSSYGKVEGFWSKDQSQWKNASENDERLSNPQIEWQNSTIDSEDGEQFDNMTDGVAEPMHGSLAGVKLSSQQA | – | strong protection against a variety of stress factors
